Test results published in patent US20250161299A1, “ORAL PCLX-001 IN THE TREATMENT OF HUMAN CANCER” (PACYLEX PHARMACEUTICALS INC., priority 2022, published 2025).
“Also recorded” adds a separate entry of the source. Where two headings read alike, the source gives them in different places.

Tests used:
[1] = test system: Pancreas cultured human cancer cells; conditions: mean among sensitive cell lines, cited from earlier work
kinases (KINOMEscan) = conditions: KINOMEscan (Fremont, CA, USA); cited from earlier work
[2] = test system: Myeloma cultured human cancer cells; conditions: first panel, mean among sensitive cell lines, read-out: EC50 mean +/− SD; cited from earlier work
[3] = test system: cancer cells (hematologic, lymphoma and solid cancer cell lines); conditions: tissue culture; hematological and solid cancer cell lines; cited from earlier work
implanted human tumors [4] = assay: Anticancer efficacy in mice bearing implanted human tumors; assay type: in vivo, mouse; conditions: in any given experiment
in vivo [5] = conditions: rat, plasma, po
[6] = test system: Ovary cultured human cancer cells; conditions: second panel, mean among sensitive cell lines, read-out: IC50 mean +/− SD; cited from earlier work
[7] = test system: Leukemia cultured human cancer cells; conditions: mean among sensitive cell lines, cited from earlier work
[8] = test system: Colon cultured human cancer cells; conditions: mean among sensitive cell lines, read-out: IC50 mean +/− SD, cited from earlier work
[9] = PK and maximally tolerated dose, daily oral administration, rat
in vivo [10] = conditions: dog, plasma, po
[11] = test system: Bruton tyrosine kinase (BTK); conditions: models of human lymphoma; cited from earlier work
[12] = PK and maximally tolerated dose, daily oral administration, dog
[13] = Allometric scaling from animal maximally tolerated doses to predict human daily oral MTD (www.truedose.app)
Protocol: The allometric scaling is based on toxicity, and the toxicity is that which establishes the Maximally Tolerated Dose (MTD) in animal studies. In mice, one toxicity study established the MTD to be 35 mg/kg. […]. […] It was not expected that, as shown herein, doses markedly lower than 180 mg daily in humans would have anticancer effects.
Allometric scaling is a means by which PK results from animal studies can be used to predict human drug exposure for a range of drug doses. In this case, allometric scaling was performed using representative values from the PK studies with daily oral PCLX-001 administration for 14 or 28 days in non-human species. These inputs were analyzed with www.truedose.app to predict the Maximally Tolerated Dose we would see in this phase one clinical trial (FIG. 2). […]

[14] = test system: Lymphoma cultured human cancer cells; conditions: mean among sensitive cell lines, cited from earlier work; for IC50: read-out: IC50 mean +/− SD
[15] = test system: DLBCL / soft tissue sarcoma in patients; assay: Phase I trial efficacy assessment (CT/PET imaging, Lugano criteria, RECIST); assay type: in vivo, human
Protocol: Patients 1 and 2 had baseline cross sectional and PET imaging, and patient 3 had baseline cross sectional imaging. Protocol defined imaging was CT every 2 cycles and PET every 6 cycles or as clinically indicated. Evaluation of response was by the Lugano classification criteria for the evaluation of non-Hodgkin lymphoma, and […] for the evaluation of soft tumors. Computed tomography was performed on patient 2 on two occasions, immediately prior to treatment (pre-treatment scan obtained Oct. 29, 2021) and after two 28-day cycles of oral PCLX-001 at a daily dose of 20 mg by mouth (post-treatment scan obtained Dec. 30, 2021). Both scans were done on the same scanner using the same techniques including the use of intravenous contrast dye. The three pairs of pre and post treatment scans are of the same cross section of the patient, in order to identify a clinical trial target lesion of a liver metastasis in the subcapsular region of segment five of the liver. […] FIG. 2A-4F.

[16] = test system: Bladder cultured human cancer cells; conditions: mean among sensitive cell lines (EC50<500 nM or IC50<500 nM), cited from earlier work
[17] = Animal (GLP) non-clinical safety testing; assay type: in vivo
Description: PCLX-001 (FIG. 1) is a potent, small molecule inhibitor of human NMT1 and NMT2 proteins.

hERG = hERG (Homo sapiens, UniProt Q12809); assay: Preclinical hERG interaction testing
Sequence of hERG (Q12809 whole entry): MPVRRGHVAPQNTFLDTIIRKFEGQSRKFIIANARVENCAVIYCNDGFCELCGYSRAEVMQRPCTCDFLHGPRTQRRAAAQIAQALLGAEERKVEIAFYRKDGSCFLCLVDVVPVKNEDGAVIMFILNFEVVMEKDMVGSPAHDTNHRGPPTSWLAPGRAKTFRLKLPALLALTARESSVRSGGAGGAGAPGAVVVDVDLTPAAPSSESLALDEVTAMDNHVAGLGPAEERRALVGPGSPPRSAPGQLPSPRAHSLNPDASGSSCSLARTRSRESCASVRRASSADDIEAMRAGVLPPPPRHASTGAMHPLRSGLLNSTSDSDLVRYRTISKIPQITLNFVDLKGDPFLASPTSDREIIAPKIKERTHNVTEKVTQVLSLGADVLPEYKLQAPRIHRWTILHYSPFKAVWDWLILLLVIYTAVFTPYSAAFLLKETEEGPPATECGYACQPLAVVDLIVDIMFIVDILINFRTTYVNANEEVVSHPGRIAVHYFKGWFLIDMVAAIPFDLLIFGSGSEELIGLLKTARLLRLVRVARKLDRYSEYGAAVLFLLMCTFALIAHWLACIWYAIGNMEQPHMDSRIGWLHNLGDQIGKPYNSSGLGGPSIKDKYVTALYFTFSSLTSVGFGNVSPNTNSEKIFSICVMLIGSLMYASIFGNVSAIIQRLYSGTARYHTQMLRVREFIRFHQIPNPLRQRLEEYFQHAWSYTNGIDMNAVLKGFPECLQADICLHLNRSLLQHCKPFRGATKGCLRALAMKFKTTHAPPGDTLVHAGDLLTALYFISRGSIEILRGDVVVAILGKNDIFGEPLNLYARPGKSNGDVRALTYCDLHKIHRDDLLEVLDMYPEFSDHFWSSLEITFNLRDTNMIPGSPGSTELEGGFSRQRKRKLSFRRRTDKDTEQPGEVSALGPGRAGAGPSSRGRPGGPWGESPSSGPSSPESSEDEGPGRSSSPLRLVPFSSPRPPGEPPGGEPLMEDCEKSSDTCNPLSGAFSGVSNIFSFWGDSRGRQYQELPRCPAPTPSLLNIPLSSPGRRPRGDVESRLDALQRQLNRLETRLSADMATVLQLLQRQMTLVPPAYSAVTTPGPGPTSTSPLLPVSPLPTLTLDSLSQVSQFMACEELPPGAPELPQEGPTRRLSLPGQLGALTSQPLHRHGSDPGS

[18] = GLP non-clinical safety testing; cited from earlier work
[19] = test system: Lung cultured human cancer cells; conditions: mean among sensitive cell lines, cited from earlier work; for IC50: read-out: IC50 mean +/− SD
[20] = test system: Sarcoma cultured human cancer cells; conditions: second panel, mean among sensitive cell lines, read-out: IC50 mean +/− SD; cited from earlier work
[21] = Phase I trial toxicity assessment (dose limiting toxicities, CTCAE version 5.0); assay type: in vivo, human; conditions: for hematopoietic profile and biochemistry / protocol defined dose limiting toxicities: 20 mg oral daily
Protocol: The subjects were assessed for toxicity using daily diary entries, clinical assessments at baseline, day 8, day 15, day 22, and day 28. Dose limiting toxicities were DLTs defined as the following cycle 1 CTCAE version 5.0 adverse events: Gr 4 platelets, Gr≥3 platelets with bleeding and/or transfusions, Gr 4 ANC for ≥7 days, Gr≥3 febrile neutropenia, and Gr≥3 non-hematological toxicity.

[22] = test system: Brain cultured human cancer cells; conditions: second panel, mean among sensitive cell lines, read-out: IC50 mean +/− SD; cited from earlier work
[23] = test system: Neuroblastoma cultured human cancer cells; conditions: second panel, mean among sensitive cell lines, read-out: IC50 mean +/− SD; cited from earlier work
implanted human tumors [24] = conditions: cited from earlier work
[25] = Oral bioavailability in animal models; assay type: in vivo
[26] = first panel, read-out: EC50 mean +/− SD
[27] = second panel, read-out: IC50 mean +/− SD

For Cc1c(NS(=O)(=O)c2c(Cl)cc(-c3ccnc(N4CCNCC4)c3)cc2Cl)c(CC(C)C)nn1C [PCLX-001, 2,6-dichloro-N-(3-isobutyl-1,5-dimethyl-1H-pyrazol-4-yl)-4-(2-(piperazin-1-yl)pyridin-4-yl)benzene sulfonamide], the EC50 [1, 26] is given as 109 ± 90 nM, the IC50 [1, 27] is given as 77.7 ± 13.7 nM and the “off target kinase inhibition” value (kinases (KINOMEscan)) is given as “no significant off target kinase inhibition”. The EC50 [2] was 144 ± 44.7 nM, the “inhibition of cancer cell growth in vitro” value [3] was “inhibition of cell growth; also recorded: markedly inhibited” and the “effective dose relative to the dose that produced mouse toxicity” value (implanted human tumors [4]) was “greater than 50%”. For the same compound, the Cmax (in vivo [5]) was 3110 ng/mL, the half-life (in vivo [5]) was 1 h and the IC50 [6] was 76.7 ± 7.6 nM. For the same compound, the EC50 [7, 26] was 97.9 ± 81.3 nM, the IC50 [7, 27] was 189 ± 87.8 nM and the IC50 ([8]; second panel) was 158 ± 27.4 nM. For the same compound, the IC50 ([8]; third panel) was 210 ± 85.4 nM, the “Maximally Tolerated Dose daily oral administration” value [9] was 125 mg/kg and the Cmax (in vivo [10]) was 650 ng/mL. For the same compound, the half-life (in vivo [10]) was 3.8 h, the “BTK modification and downstream signaling” value [11] was “profoundly inhibited” and the “Maximally Tolerated Dose daily oral administration” value [12] was 4 mg/kg. For the same compound, the “Allometric prediction of human MTD” value ([13]; scaled from dog MTD) was 137 mg mg/70 kg, the “Allometric prediction of human MTD” value ([13]; scaled from mouse MTD) was 180 mg mg/70 kg and the “Allometric prediction of human MTD” value ([13]; scaled from rat MTD) was 1300 mg mg/70 kg. The EC50 [14, 26] was 80.9 nM, the IC50 ([14]; second panel) was 138 ± 55.8 nM and the IC50 ([14]; third panel) was 230 ± 107 nM. The “disease response (Lugano criteria, computed tomography day 28)” value ([15]; Patient 1, refractory relapsed DLBCL, 20 mg oral daily) was “disease progression; also recorded: progression of the volume of lymphoma”, the “response in lymph nodes” value ([15]; Patient 2, DLBCL, 20 mg oral daily) was “progressive disease in lymph nodes” and the “response of hepatic metastatic disease on CT” value ([15]; Patient 2, DLBCL, 20 mg oral daily, about two months) was “marked reduction of volume of hepatic metastatic disease; also recorded: marked tumor response in hepatic metastases; also recorded: marked tumor regression; also recorded: regression of a malignant lesion in the liver”. For the same compound, the response assessment scans ([15]; Patient 3, leiomyosarcoma, after two 28 day cycles) was “progressive disease”, the EC50 [16, 26] was 155 ± 49.7 nM and the IC50 [16, 27] was 172 ± 79.8 nM. The cardiac conduction [17] was “no cardiac conduction issues”, the hERG interaction (hERG) was “no significant hERG interaction” and the dose limiting toxicity [18] was “diarrhea was dose limiting”. The EC50 [19, 26] was 151 ± 88.2 nM, the IC50 ([19]; second panel) was 184 ± 82.8 nM and the IC50 ([19]; third panel) was 154 ± 111 nM. The IC50 [20] was 198 ± 134 nM, the “hematopoietic profile and biochemistry” value ([21]; Patient 1) was “remained normal; also recorded: no evidence of toxicity” and the “protocol defined dose limiting toxicities” value ([21]; Patient 1, 28 day cycle) was “did not experience any dose limiting toxicities; also recorded: no protocol defined dose limiting toxicities”. The “hematopoietic profile and biochemistry” value ([21]; Patient 2) was “remained normal”, the “protocol defined dose limiting toxicities” value ([21]; Patient 2) was “no protocol defined dose limiting toxicities” and the drug related toxicities ([21]; Patient 3, daily PCLX-001, two 28 day cycles) was “No drug related toxicities were identified”. The IC50 [22] was 153 ± 63.5 nM, the IC50 [23] was 230 ± 183 nM and the “anticancer activity in mice bearing human cancers” value (implanted human tumors [24]; 10 mg/kg or lower) was “no evident anticancer activity”. The “anti-cancer effects in mice with implanted human tumors” value (implanted human tumors [24]; 35 mg/kg and higher doses) was “had anti-cancer effects”, the “response of human cancers grown in immunodeficient mice” value (implanted human tumors [24]; preclinical studies) was “complete remissions” and the oral bioavailability [25] was “complete oral bioavailability”.
